From PubChem BioAssay (NCI) come the findings set out here.

Among the test systems are MOLT-4 leukemia; TK-10 renal; PC-3 prostate; 786-0 renal; SK-MEL-5 melanoma; OVCAR-8 ovarian; CCRF-CEM leukemia; RXF 393 renal; SK-MEL-28 melanoma; MCF7 breast; MDA-MB-435; SF-295 CNS.
Holding throughout (assay): inhibition of tumour cell growth, NCI panel, 48 h

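Results reflect a 48-hour exposure of cells in 96-well plates to compound at five concentrations. TGI denotes the concentration required for complete inhibition of growth.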

`COc1ccccc1-n1c(=O)n(C)c(=O)n1C(C)(C)C`: the TGI with MOLT-4 leukemia, in the assay with TK-10 renal, in the assay with PC-3 prostate, in the assay on 786-0 renal, in the assay with SK-MEL-5 melanoma and in the assay on OVCAR-8 ovarian was greater than 100 µM each time. Moreover, the TGI in the assay with CCRF-CEM leukemia, with RXF 393 renal, with SK-MEL-28 melanoma, in the assay with MCF7 breast and in the assay on MDA-MB-435 was greater than 100 µM throughout.

Turning to `Cc1ccc(S(=O)(=O)N2C[C@@H]3CC[C@]4(CO[Si](C)(C)C(C)(C)C)N[C@@H](c5ccccc5)[C@H]2[C@H]34)cc1`, the TGI was greater than 100 µM with MOLT-4 leukemia; greater than 100 µM with TK-10 renal; greater than 100 µM in the assay on SF-295 CNS; greater than 100 µM with PC-3 prostate; greater than 100 µM in the assay with 786-0 renal; 30.6 µM with SK-MEL-5 melanoma. The TGI in the assay on OVCAR-8 ovarian is greater than 100 µM; with CCRF-CEM leukemia, greater than 100 µM; in the assay on RXF 393 renal, 53.1 µM; in the assay with SK-MEL-28 melanoma, greater than 100 µM; in the assay on MCF7 breast, greater than 100 µM; with MDA-MB-435 it was greater than 100 µM.

Regarding `CC(C)(C)OC(=O)NC12C3C4C1C1C2C3C41NC(=O)OC(C)(C)C` (stereo unspecified), the TGI was 40.4 µM in the assay with MOLT-4 leukemia; greater than 100 µM in the assay with TK-10 renal; greater than 100 µM in the assay with SF-295 CNS; greater than 100 µM in the assay with PC-3 prostate; greater than 100 µM in the assay on 786-0 renal; greater than 100 µM with SK-MEL-5 melanoma. Further, the TGI was greater than 100 µM with OVCAR-8 ovarian; 61.7 µM in the assay on CCRF-CEM leukemia; 84.4 µM in the assay on RXF 393 renal; greater than 100 µM in the assay on SK-MEL-28 melanoma; 95.9 µM with MCF7 breast; greater than 100 µM in the assay on MDA-MB-435.

Regarding `CCCCc1ccc(Nc2ncc3ncn(COCCO)c3n2)cc1`, the TGI was 53.1 µM in the assay on MOLT-4 leukemia; greater than 100 µM in the assay with TK-10 renal; 80.1 µM in the assay with SF-295 CNS; greater than 100 µM in the assay on PC-3 prostate; greater than 100 µM in the assay with 786-0 renal; 49.6 µM with SK-MEL-5 melanoma. The TGI in the assay with OVCAR-8 ovarian was greater than 100 µM; in the assay with CCRF-CEM leukemia, 60.6 µM; in the assay on RXF 393 renal it was 86.6 µM; with MCF7 breast, greater than 100 µM; in the assay with MDA-MB-435, 87.5 µM.

With `C1=NCCNCCNCCN=Cc2ccc(cc2)OCc2cccc(n2)COc2ccc1cc2`, the TGI in the assay with MOLT-4 leukemia, with SF-295 CNS, in the assay on PC-3 prostate, in the assay on 786-0 renal, in the assay with SK-MEL-5 melanoma and in the assay with OVCAR-8 ovarian was greater than 100 µM in each case. Further, the TGI in the assay on CCRF-CEM leukemia, with RXF 393 renal, in the assay with SK-MEL-28 melanoma, in the assay with MCF7 breast and with MDA-MB-435 was greater than 100 µM throughout.

With `CC1C(NNC(N)=O)Oc2cc3c(cc2C1c1ccccc1O)OCO3` (stereo unspecified), the TGI with MOLT-4 leukemia is greater than 100 µM; in the assay on TK-10 renal it was greater than 100 µM; in the assay with SF-295 CNS, 76.2 µM; in the assay with PC-3 prostate, 90.6 µM; in the assay with SK-MEL-5 melanoma, greater than 100 µM; with CCRF-CEM leukemia it was 54.5 µM. For the same compound, the TGI was 84.6 µM in the assay on RXF 393 renal, greater than 100 µM in the assay with SK-MEL-28 melanoma, greater than 100 µM in the assay with MCF7 breast and 48 µM with MDA-MB-435.

As to `Cc1ccc(S(=O)(=O)NC(CCC(=O)NNc2ccccc2)C(=O)NNc2ccccc2)cc1` (stereo unspecified), the TGI was greater than 100 µM in the assay with MOLT-4 leukemia; 46.5 µM in the assay on TK-10 renal; greater than 100 µM with SF-295 CNS; greater than 100 µM with PC-3 prostate; greater than 100 µM in the assay on 786-0 renal; greater than 100 µM in the assay with SK-MEL-5 melanoma. Moreover, the TGI in the assay with OVCAR-8 ovarian, in the assay on CCRF-CEM leukemia, in the assay on RXF 393 renal, in the assay with MCF7 breast and with MDA-MB-435 was greater than 100 µM each time.

Consider `CC1CC[C@@]2(OC1)O[C@H]1[C@H](O)[C@H]3[C@@H]4CC[C@H]5C[C@@H](OC6OC(CO)C(OC7OC(CO)C(O)C(OC8OCC(O)C(O)C8O)C7OC7OC(CO)C(O)C(O)C7OC7OC(CO)C(O)C(O)C7O)C(O)C6O)[C@H](O)C[C@]5(C)[C@H]4CC[C@]3(C)[C@H]1[C@@H]2C` (stereo partly specified), for which the TGI with MOLT-4 leukemia was 1.19 µM; in the assay on TK-10 renal, greater than 10 µM; with PC-3 prostate, 7.84 µM; with 786-0 renal, 9.37 µM; with SK-MEL-5 melanoma it was greater than 10 µM; in the assay with OVCAR-8 ovarian it was greater than 10 µM. Also, the TGI is 2.51 µM with CCRF-CEM leukemia; greater than 10 µM with RXF 393 renal; greater than 10 µM in the assay with SK-MEL-28 melanoma; 7.71 µM with MCF7 breast; greater than 10 µM in the assay on MDA-MB-435.

Consider `O=P1(N2CCOCC2)OCCO1`, for which the TGI in the assay with MOLT-4 leukemia, in the assay with SF-295 CNS, in the assay on PC-3 prostate, in the assay on 786-0 renal, in the assay with SK-MEL-5 melanoma and in the assay on CCRF-CEM leukemia was greater than 100 µM throughout. The TGI with RXF 393 renal, with SK-MEL-28 melanoma, in the assay on MCF7 breast and with MDA-MB-435 was greater than 100 µM each time.

On to `N#Cc1nc2cc(Cl)ccc2nc1N1CCN(c2ccc([N+](=O)[O-])cc2)CC1`, for which the TGI with MOLT-4 leukemia, in the assay on TK-10 renal, with SF-295 CNS, with PC-3 prostate, in the assay on 786-0 renal and in the assay on SK-MEL-5 melanoma was greater than 100 µM in each case. Further, the TGI with OVCAR-8 ovarian, with RXF 393 renal, in the assay with SK-MEL-28 melanoma, with MCF7 breast and in the assay with MDA-MB-435 was greater than 100 µM in each case.

Turning to `CN(Cc1cnc2nc(N)nc(N)c2n1)c1ccc(C(=O)NC23CC4CC(CC(C4)C2)C3)cc1`, the TGI with MOLT-4 leukemia was 48.5 µM; with TK-10 renal it was 30.8 µM; with SF-295 CNS, 21.1 µM; in the assay with PC-3 prostate, 19 µM; with 786-0 renal it was 57.1 µM; in the assay on SK-MEL-5 melanoma, 17.7 µM. The TGI in the assay on OVCAR-8 ovarian was 19.9 µM; in the assay on CCRF-CEM leukemia, 52 µM; in the assay with RXF 393 renal, 40.4 µM; in the assay on MCF7 breast it was 23.6 µM; with MDA-MB-435, 31.6 µM.
